For the assay, the target named is T1, Subtilisin Carlsberg (Bacillus licheniformis) (UniProt P00780).
T1 sequence (whole entry): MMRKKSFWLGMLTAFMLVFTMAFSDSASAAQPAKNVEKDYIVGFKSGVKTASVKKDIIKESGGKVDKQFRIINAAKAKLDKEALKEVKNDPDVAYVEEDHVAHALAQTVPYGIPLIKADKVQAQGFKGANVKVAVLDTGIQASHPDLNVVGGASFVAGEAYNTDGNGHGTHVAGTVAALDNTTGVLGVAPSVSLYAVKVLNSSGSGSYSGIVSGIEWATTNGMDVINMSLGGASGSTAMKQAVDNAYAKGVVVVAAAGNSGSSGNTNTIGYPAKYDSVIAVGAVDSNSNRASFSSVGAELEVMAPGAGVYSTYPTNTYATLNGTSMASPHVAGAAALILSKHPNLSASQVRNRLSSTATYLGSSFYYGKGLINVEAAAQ
The assay can be described thus: Inhibition of Bacillus licheniformis subtilisin using Suc-Ala-Ala-Pro-Phe-AMC as substrate by spectrofluorometry.

The values below come from ChEMBL document CHEMBL3769401, “The first potent diphenyl phosphonate KLK4 inhibitors with unexpected binding kinetics” (Medchemcomm, 2015).

Consider `CC(C)[C@H](NC(=O)OC(C)(C)C)C(=O)N1CCC[C@H]1C(=O)N[C@H](Cc1ccccc1)P(=O)(Oc1ccc(CS)cc1)Oc1ccc(CS)cc1`, for which the Kapp came out at 1 ×10⁵ /M/s.
